{"source": "patent US20060057620A1", "about": "“Treatment of HIV infection” (priority 2004, published 2006)", "origin": "cited, not measured here", "tested_on": "circulating T-cells", "details": "FIG. 1"}
{"substance": "alemtuzumab", "values": [{"measurement": "time to full recovery of T-cells", "setting": "after a single dose", "value": "≥ 3", "unit": "months"}, {"measurement": "killing of circulating T-cells (T-cell depletion)", "setting": "single dose", "value": "able to kill all circulating T-cells"}]}
